Results taken from patent US10010536B2, “Method of modulating stress-activated protein kinase system” (InterMune, Inc., priority 2005, dated 2018).

What was measured:
[1] = system: TNFα release from THP-1 cells stimulated with lipopolysaccharide (LPS); assay: Inhibition of TNFα release from THP-1 cells stimulated with lipopolysaccharide (LPS); type: cell-based; parameters: key to TNF EC50: A: ≤2,000; B: >2,000; C: Inconclusive (e.g., no data or no activity observed); details: for EC50: Homo sapiens, read-out: TNF EC50
Method: Compounds are screened for the ability to inhibit TNFα release from THP-1 cells stimulated with lipopolysaccharide (LPS) in vitro. The ability of compounds to inhibit TNFα release in this in vitro assay is correlated with the inhibition of p38 activity and TNFα, and is therefore an indicator of potential in vivo therapeutic activity (Lee J. C. et al. 1993 Ann. N.Y. Acad. Sci. 696:149-170; and 1994 Nature 372:739-746).
THP-I cells from ATCC (TIB202) are maintained at 37° C., 5% CO2 in RPMI 1640 media (MediaTech, Herndon, Va.) containing 4.5 g/L glucose, supplemented with 10% fetal bovine serum, 1% penicillin/streptomycin and 50 μM β-mercaptoethanol.
Test compounds are initially dissolved in RPMI media with 1% DMSO (v/v). Compounds are then serially diluted in RPMI media for all subsequent dilutions. The assay is performed under sterile conditions. THP-1 cells at a culture density of 6-8×10^5 cells/ml are collected and resuspended in the RPMI media at 10^6 cells/ml. 100 μl of resuspended cells are added to each well, which contain 100 μl of a test compound. Test compounds are prepared at twice the final concentration. Final DMSO concentration is no more than 0.5% (v/v). Cells are preincubated with compound for 60 minutes at 37° C., 5% CO2 prior to stimulation with lipopolysaccharide (LPS) (Sigma L-2880, 4 mg/ml stock in PBS). The final LPS concentration in each well is […] for TNFα and IL-1β release, respectively. Unstimulated control cell suspensions receive PBS vehicle only. Cell mixtures are incubated for 18 or 48 hours for TNFα and IL-1β release, respectively. 150 μl of supernatants are taken and transferred to a fresh plate and stored at −20° C. until farther analysis. TNFα and IL-1β levels are measured using ELISA kits. A Luminescence is used as the plate reader. Analysis is performed by non-linear regression to generate a dose response curve.

THP-1 cells = assay: Compound toxicity testing in a cell based assay (LDH release, ATP and/or MTT assay); details: given as concentration
Method: The release of LDH as result of a disrupted cell membrane is applied as a measure of cell toxicity. […] THP-1 cells are used for determination of cell toxicity for consistency with the induced TNFα expression in the previous experiment. […] The compounds are added at different concentrations in triplicate. The appropriate solvent control is used in each assay. After compound addition the cells are cultured 18 hours under regular tissue culture conditions. After this incubation period, the positive control is initiated by adding Triton-X-100 (2% v/v) to untreated cells and incubated for an additional 10 minutes for complete cell lysis. Subsequently the cells are sedimented by centrifugation and a fraction of the supernatant removed and analyzed for LDH enzyme activity according to the manufacturer's instructions. The data is typically reported as % cell toxicity normalized to the Triton-X-100 lysed cells as 100% cell toxicity.
Toxicity data are also obtained using a commercially available ATP assay (Molecular Probes' ATP Determination Kit A22066, available from Invitrogen) and/or using a MTT assay. Both the ATP and the MTT assays measure metabolic competence of the cell. The MTT assay measures the ability of the cell to reduce a marker substrate, which is related to metabolic competence (i.e. viability). The ATP assay measures the cellular ATP concentration in the presence and absence of compound. Toxic compounds lead to reduced metabolic activity which leads to a reduction in ATP concentration.

HFL-1 Cells = assay: Effect of compounds on TGF-β-induced collagen production in HFL-1 cells (Sircol collagen assay); type: cell-based; details: Homo sapiens, HFL1, 72 h, compound 1 mM, TGF-β1 10 ng/mL, three days, read-out: % Inhibition of TGF-β Stimulated Collagen Synthesis
Method: HFL-1 Cells (ATCC, Rockville, Md.) were grown under regular tissue culture conditions in complete media containing 10% fetal bovine serum (FBS; Mediatech, Inc., Herndon, Va.). Cells in early passage were plated in 6 well plates. When the cells reached confluence, the media was removed, cells washed with PBS, and the cells were kept overnight in complete media containing 0.1% FBS. The media was then replaced with fresh media plus 0.1% FCS, 10 μM L-Proline (EMD Chemicals, Gibbstown, N.J.), 20 μg/mL ascorbic acid (EMD Chemicals, Gibbstown, N.J.). Compounds were added to triplicate wells to a final concentration of 1 mM from 100× stock solutions in DMSO. One hour after the addition of compound, the cells were treated with TGF-β1 (Sigma-Aldrich, St. Louis, Mo.) to a final concentration of 10 ng/mL (25 ng total). Three days after addition of TGF-β, the media was removed, cells were washed with PBS and then lysed. The total collagen content of lysed cells was assessed with a dye-based collagen assay (Sircol Collagen Assay, Newtownabbey, Northern Ireland) and a μQuant plate-based spectrophotometer (BioTek Insturments, Inc., Winooski, Vt.) with appropriate standard curves. The dynamic range of the assay is defined by cells that were mock treated (1% DMSO without compound) in the presence and absence of TGF-β.

[2] = Pharmacokinetic properties in dual canulated Sprague Dawley rats; type: in vivo; parameters: Clobs: unit not given here; details: rat; for AUC(0-t) / MRT inf / half-life: male, Sprague Dawley, plasma
Method: The pharmacokinetic (PK) properties of pirfenidone, pirfenidone analogs and derivatives were assessed in dual canulated (right jugular/left carotid) Sprague Dawley rats (Charles River Laboratories, Inc., Wilmington, Mass.). Male rats weighing approximately 275-300 g were administered an intravenous (5 mg/Kg) or oral (50 mg/Kg via gavage) dose of compound in an appropriate formulation. Plasma samples were collected via intra-arterial canula at desired times in the 24 hours after dosing using EDTA as an anticoagulant. Three animals were used for each compound. All experiments were conducted by trained personnel in accordance with guidelines of the appropriate Institutional Animal Care and Use Committees (IACUC). Compound concentrations were assessed by LC-MS using a MDS SCIEX API 3000 mass spectrometer (Applied Biosystems, Foster City, Calif.) coupled to a Shimadzu VP HPLC (Shimadzu Corp., Kyoto, Japan) outfitted with a Duragel G C18 guard cartridge (Peeke Scientific, Redwood City, Calif.). Calibration samples were prepared by mixing known amounts of pirfenidone, or a pirfenidone analog or derivative, with rat plasma. A standard curve was created by serial dilution of the calibration sample in the same matrix. Both standard and analytical samples were prepared for injection to the HPLC by mixing an aliquot of plasma sample with 3 volumes of ice cold acetonitrile containing internal standard. Samples were then centrifuged. An aliquot of the resulting supernatant was then mixed with five volumes of 0.2% formic acid in water, injected to the HPLC, and resolved in a methanol gradient (containing 0.18-0.2% formic acid). The integrated analyte signal was corrected for that of the internal standard and compared to the appropriate standard curve in order to define the analyte concentration. The pharmacokinetic parameters shown in Table 4 were derived using the WinNonlin Software package (Pharsight Corp, Mountain View, Calif.).

Row | Structure (SMILES) | TNF EC50 [1] | EC50 [1] [µM] | further results
1 | O=c1ccc(C(F)(F)F)cn1-c1ccc(F)cc1 [Compound 12] | C | – | –
2 | Cc1ccc(=O)n(-c2ccc(O)cc2)c1 [Compound 5] | – | ≤ 2000 | Toxicity (THP-1 cells): ≥1 mM
3 | O=c1ccccn1-c1ccc(O)cc1 [Compound 9] | C | – | –
4 | O=c1ccc(C(F)(F)F)cn1-c1ccc(O)cc1 [Compound 10, 1-(4-hydroxyphenyl)-5-(trifloromethyl)-2-pyridone] | – | ≤ 2000 | –
5 | COc1ccc(-n2cc(CF)ccc2=O)cc1 [Compound 31] | – | ≤ 2000 | –
6 | O=c1ccc(Br)cn1-c1ccc(O)cc1 [Compound 30] | – | ≤ 2000 | inhibition at 1000 µM (HFL-1 Cells): 69%
7 | O=c1ccccn1-c1ccccc1 [Compound 7] | – | > 2000 | –
8 | O=c1ccc(C(F)F)cn1-c1ccccc1 [Compound 19] | – | – | AUC(0-t) ([2]; IV, 5 mg/kg): 35000 ng·h/mL; MRT inf ([2]; IV, 5 mg/kg): 6.26 h; half-life ([2]; IV, 5 mg/kg): 2.96 h; AUC(0-t) ([2]; Oral, 50 mg/kg): 192000 ng·h/mL; Clobs ([2]; IV, 5 mg/kg): 0.142; E ([2]; Oral, 50 mg/kg): 54.8%
9 | COC(=O)c1ccc(=O)n(-c2ccccc2)c1 [Compound 24] | C | – | –
10 | O=c1ccc(C(F)(F)F)cn1-c1ccccc1 [Compound 8] | – | > 2000 | inhibition at 1000 µM (HFL-1 Cells): 48%; AUC(0-t) ([2]; IV, 5 mg/kg): 30200 ng·h/mL; MRT inf ([2]; IV, 5 mg/kg): 20.3 h; half-life ([2]; IV, 5 mg/kg): 13.9 h; AUC(0-t) ([2]; Oral, 50 mg/kg): 122000 ng·h/mL; Clobs ([2]; IV, 5 mg/kg): 0.117; E ([2]; Oral, 50 mg/kg): 40.5%
11 | O=c1ccc(Br)cn1-c1ccccc1 [Compound 26] | – | ≤ 2000 | inhibition at 1000 µM (HFL-1 Cells): 58%; AUC(0-t) ([2]; IV, 5 mg/kg): 10300 ng·h/mL; MRT inf ([2]; IV, 5 mg/kg): 2.4 h; half-life ([2]; IV, 5 mg/kg): 1.62 h; AUC(0-t) ([2]; Oral, 50 mg/kg): 65800 ng·h/mL; Clobs ([2]; IV, 5 mg/kg): 0.691; E ([2]; Oral, 50 mg/kg): 63.9%
12 | O=c1ccc(CO)cn1-c1ccccc1 [Compound 1] | – | > 2000 | –
13 | O=c1ccc(C(F)F)cn1-c1ccc(O)cc1 [Compound 29] | C | – | –
14 | Cc1ccc(=O)n(-c2ccccc2)c1 [Compound 13, 5-methyl-1-phenyl-2-(1H)-pyridone, reference compound] | – | ≤ 2000 | Toxicity (THP-1 cells): ≥1 mM
15 | O=c1ccc2cc(Br)ccc2n1-c1ccccc1 [Compound 33] | C | – | –
16 | O=C(O)c1ccc(=O)n(-c2ccccc2)c1 [Compound 2] | C | – | –
17 | COCc1ccc(=O)n(-c2ccccc2)c1 [Compound 6] | – | ≤ 2000 | Toxicity (THP-1 cells): ≥1 mM
18 | Cc1cc(O)c(=O)n(-c2ccccc2)c1 [Compound 4] | – | ≤ 2000 | Toxicity (THP-1 cells): ≥1 mM
19 | CC(=O)c1ccc(=O)n(-c2ccccc2)c1 [Compound 16, 1-phenyl-5-acetyl-2-pyridone] | C | – | –
20 | O=c1ccccn1-c1ccc(F)cc1 [Compound 11] | – | > 2000 | –
21 | Cc1ccc(=O)n(-c2cc[n+](C)cc2)c1 [Compound 25] | – | > 2000 | –
22 | Cc1ccc(=S)n(-c2ccccc2)c1 [Compound 18, 1-phenyl-5-methyl-2-pyridinethione] | C | – | –
23 | COc1ccc(-n2cc(C(F)(F)F)ccc2=O)cc1 [Compound 15] | C | – | inhibition at 1000 µM (HFL-1 Cells): 49%
24 | O=c1ccc(-c2ccccc2)cn1-c1ccccc1 [Compound 17] | C | – | –
25 | O=c1ccc(CF)cn1-c1ccc(O)cc1 [Compound 28] | C | – | –
26 | Cc1ccc(=O)n(-c2ccc(F)cc2)c1 [Compound 14] | – | > 2000 | inhibition at 1000 µM (HFL-1 Cells): 23%
27 | COc1ccc(-n2cc(Br)ccc2=O)cc1 [Compound 27] | – | ≤ 2000 | –
28 | COc1ccc(-n2cc(C(F)F)ccc2=O)cc1 [Compound 32] | – | ≤ 2000 | –
